Assay results published in PubChem BioAssay AID248 (DTP/NCI, 2004).
Where “and” joins values, the source holds several entries; their conditions need not be identical. Identical values can stand only once. Toxic doses and inconclusive results are not listed. Cut-off read from the data, not from the text of the source: active = T/C of 150% or more; inactive = T/C below 125%.

System: L1210 leukemia ip in BDF1 mice, survival T/C
Assay: NCI In Vivo Anticancer Drug Screen. Data for tumor model L1210 Leukemia (intraperitoneal) in B6D2F1 (BDF1) mice
Settings: endpoint: mean survival time, higher = longer survival
Description: The antitumor activity of compounds was measured in mice bearing transplantable tumors. Survival or tumor size were measured and the results are expressed as the measurement made in the treated group (T) divided by the measurement made in the vehicle treated control group (C). The tumor model used in this assay is L1210 Leukemia (intraperitoneal) in B6D2F1 (BDF1) mice

[1] = dose: 25.0 mg/kg/injection, schedule: Q04DX002 (ip), vehicle: Klucel (hydroxypropylcellulose) (HPC)
[2] = dose: 50.0 mg/kg/injection, schedule: Q04DX002 (ip), vehicle: Klucel (hydroxypropylcellulose) (HPC)
[3] = dose: 100.0 mg/kg/injection, schedule: Q04DX002 (ip), vehicle: Klucel (hydroxypropylcellulose) (HPC)
[4] = dose: 100.0 mg/kg/injection, schedule: Q01DX009 (ip), vehicle: Klucel (hydroxypropylcellulose) (HPC)
[5] = dose: 200.0 mg/kg/injection, schedule: Q01DX009 (ip), vehicle: Klucel (hydroxypropylcellulose) (HPC)
[6] = dose: 400.0 mg/kg/injection, schedule: Q01DX009 (ip), vehicle: Klucel (hydroxypropylcellulose) (HPC)
[7] = dose: 100.0 mg/kg/injection, schedule: Q01DX009 (ip), vehicle: saline with Tween-80
[8] = dose: 200.0 mg/kg/injection, schedule: Q01DX009 (ip), vehicle: saline with Tween-80
[9] = dose: 400.0 mg/kg/injection, schedule: Q01DX009 (ip), vehicle: saline with Tween-80
[10] = dose: 100.0 mg/kg/injection, schedule: Q01DX001 (ip), vehicle: saline
[11] = dose: 200.0 mg/kg/injection, schedule: Q01DX001 (ip), vehicle: saline
[12] = dose: 400.0 mg/kg/injection, schedule: Q01DX001 (ip), vehicle: saline
[13] = dose: 100.0 mg/kg/injection, schedule: Q04DX003 (ip), vehicle: Klucel (hydroxypropylcellulose) (HPC)
[14] = dose: 200.0 mg/kg/injection, schedule: Q04DX003 (ip), vehicle: Klucel (hydroxypropylcellulose) (HPC)
[15] = dose: 400.0 mg/kg/injection, schedule: Q04DX003 (ip), vehicle: Klucel (hydroxypropylcellulose) (HPC)
[16] = dose: 100.0 mg/kg/injection, schedule: Q04DX003 (ip), vehicle: saline with Tween-80
[17] = dose: 200.0 mg/kg/injection, schedule: Q04DX003 (ip), vehicle: saline with Tween-80
[18] = dose: 400.0 mg/kg/injection, schedule: Q04DX003 (ip), vehicle: saline with Tween-80
[19] = dose: 100.0 mg/kg/injection, schedule: Q01DX001 (ip), vehicle: saline with Tween-80
[20] = dose: 200.0 mg/kg/injection, schedule: Q01DX001 (ip), vehicle: saline with Tween-80
[21] = dose: 400.0 mg/kg/injection, schedule: Q01DX001 (ip), vehicle: saline with Tween-80
[22] = dose: 200.0 mg/kg/injection, schedule: Q04DX002 (ip), vehicle: Klucel (hydroxypropylcellulose) (HPC)
[23] = dose: 400.0 mg/kg/injection, schedule: Q04DX002 (ip), vehicle: Klucel (hydroxypropylcellulose) (HPC)

Measured: T/C

c1ccc(C2C(CN3CCCCCC3)C2c2ccccc2)cc1 (stereo not drawn)
inactive: dose: 12.5 mg/kg/injection, schedule: Q04DX002 (ip), vehicle: Klucel (hydroxypropylcellulose) (HPC) 88 % of control | [1] 95 % of control and 98 % of control | [2] 98 % of control and 101 % of control and 91 % of control | [3] 92 % of control

O=[N+]([O-])c1ccc(NN=C(CO)CO)c([N+](=O)[O-])c1
inactive: dose: 100.0 mg/kg/injection, schedule: Q01DX005 (ip), vehicle: saline 98 % of control | dose: 100.0 mg/kg/injection, schedule: Q04DX003 (ip), vehicle: saline 101 % of control | dose: 200.0 mg/kg/injection, schedule: Q01DX005 (ip), vehicle: saline 93 % of control | dose: 200.0 mg/kg/injection, schedule: Q04DX003 (ip), vehicle: saline 100 % of control | dose: 400.0 mg/kg/injection, schedule: Q01DX005 (ip), vehicle: saline 86 % of control | dose: 400.0 mg/kg/injection, schedule: Q04DX003 (ip), vehicle: saline 100 % of control

CCOC(=O)c1c(/N=C/c2ccc3c(c2)OCO3)sc2c1CCCC2
inactive: dose: 100.0 mg/kg/injection, schedule: Q04DX002 (ip), vehicle: saline with Tween-80 98 % of control | dose: 200.0 mg/kg/injection, schedule: Q04DX002 (ip), vehicle: saline with Tween-80 95 % of control | dose: 400.0 mg/kg/injection, schedule: Q04DX002 (ip), vehicle: saline with Tween-80 95 % of control

CCOC(=O)Nc1cc(Cl)ccc1OC
inactive: [4] 107 % of control | [5] 91 % of control | [6] 93 % of control

CCOC(=O)/C=C/Oc1cc(Cl)c(Cl)cc1Cl
inactive: [7] 110 % of control | [8] 92 % of control | [9] 93 % of control

O=C1C(=O)c2c(nc3ccccn23)-c2ccccc21
inactive: dose: 100.0 mg/kg/injection, schedule: Q01DX001 (ip), vehicle: Klucel (hydroxypropylcellulose) (HPC) 103 % of control | dose: 200.0 mg/kg/injection, schedule: Q01DX001 (ip), vehicle: Klucel (hydroxypropylcellulose) (HPC) 94 % of control | dose: 400.0 mg/kg/injection, schedule: Q01DX001 (ip), vehicle: Klucel (hydroxypropylcellulose) (HPC) 105 % of control

Brc1ccc(S/C=C/c2ccccc2)cc1
inactive: [10] 112 % of control | [11] 102 % of control | [12] 101 % of control

COc1nc2c(=O)[nH]cnc2n1C1OC(CO)C(O)C1O (stereo not drawn)
inactive: [10] 96 % of control | [11] 100 % of control | [12] 97 % of control

CSc1ccc(OC(=O)Nc2cc(C)ccc2C)cc1
inactive: [4] 97 % of control | [13] 109 % of control | [5] 107 % of control | [14] 107 % of control | [15] 107 % of control

NC(=O)c1nccnc1Cl
inactive: [7] 91 % of control | [16] 100 % of control | [8] 98 % of control | [17] 97 % of control | [18] 110 % of control

CC(=O)c1c(C)[nH]c2ccccc12
inactive: [19] 101 % of control | [16] 95 % of control | [20] 103 % of control | [17] 95 % of control | [21] 97 % of control | [18] 95 % of control

CC(C)C(=O)NC1CCCCC1
inactive: [1] 111 % of control | [2] 111 % of control | [3] 101 % of control

O=NN(CCCl)C(=O)NC1(C(=O)O)CCCC1
inactive: dose: 15.0 mg/kg/injection, schedule: Q01DX001 (ip), vehicle: saline with Tween-80 109 % of control | dose: 23.0 mg/kg/injection, schedule: Q01DX001 (ip), vehicle: saline with Tween-80 113 % of control | dose: 50.0 mg/kg/injection, schedule: Q01DX001 (ip), vehicle: Klucel (hydroxypropylcellulose) (HPC) 121 % of control | dose: 252.0 mg/kg/injection, schedule: Q01DX001 (ip), vehicle: Klucel (hydroxypropylcellulose) (HPC) 106 % of control | dose: 252.0 mg/kg/injection, schedule: Q01DX001 (ip), vehicle: carboxymethylcellulose (CMC) 89 % of control
active: dose: 75.0 mg/kg/injection, schedule: Q01DX001 (ip), vehicle: Klucel (hydroxypropylcellulose) (HPC) 172 % of control | dose: 75.0 mg/kg/injection, schedule: Q01DX001 (ip), vehicle: carboxymethylcellulose (CMC) 162 % of control | dose: 80.0 mg/kg/injection, schedule: Q01DX001 (ip), vehicle: saline with Tween-80 152 % of control | dose: 112.0 mg/kg/injection, schedule: Q01DX001 (ip), vehicle: Klucel (hydroxypropylcellulose) (HPC) 243 % of control | dose: 112.0 mg/kg/injection, schedule: Q01DX001 (ip), vehicle: carboxymethylcellulose (CMC) 168 % of control | dose: 119.0 mg/kg/injection, schedule: Q01DX001 (ip), vehicle: saline with Tween-80 252 % of control | dose: 168.0 mg/kg/injection, schedule: Q01DX001 (ip), vehicle: Klucel (hydroxypropylcellulose) (HPC) 310 % of control | dose: 168.0 mg/kg/injection, schedule: Q01DX001 (ip), vehicle: carboxymethylcellulose (CMC) 272 % of control | dose: 178.0 mg/kg/injection, schedule: Q01DX001 (ip), vehicle: saline with Tween-80 274 % of control | dose: 266.0 mg/kg/injection, schedule: Q01DX001 (ip), vehicle: saline with Tween-80 246 % of control

Cc1cc(C)c(NC(=O)Nc2ccc(Cl)c(Cl)c2)cc1C
inactive: [3] 93 % of control | [22] 96 % of control | [23] 93 % of control

CC1CN(Cc2ccc([N+](=O)[O-])cc2)CC(C)N1N (stereo not drawn)
inactive: dose: 50.0 mg/kg/injection, schedule: Q01DX005 (ip), vehicle: saline with Tween-80 98 % of control | dose: 100.0 mg/kg/injection, schedule: Q01DX005 (ip), vehicle: saline with Tween-80 103 % of control

OCCCOc1ccc(Cl)cc1Cl
inactive: dose: 100.0 mg/kg/injection, schedule: Q04DX002 (sc), vehicle: olive oil, sesame oil, peanut oil 100 % of control | dose: 200.0 mg/kg/injection, schedule: Q04DX002 (sc), vehicle: olive oil, sesame oil, peanut oil 95 % of control | dose: 400.0 mg/kg/injection, schedule: Q04DX002 (sc), vehicle: olive oil, sesame oil, peanut oil 110 % of control

O=C(Nc1ccc(Cl)c(Cl)c1)Nc1cccc2nsnc12
inactive: [4] 92 % of control | [5] 92 % of control | [6] 92 % of control

Cc1ccc(CNC(=O)NC(C)(C)C)cc1C
inactive: [3] 103 % of control | [22] 111 % of control | [23] 100 % of control

O=[N+]([O-])c1cccc(S(=O)(=O)NNc2cccc(C(F)(F)F)c2)c1
inactive: [13] 99 % of control | [14] 94 % of control | [15] 89 % of control

O=C(O)c1ccc(NCc2cccc(NCCCc3ccccc3)c2)cc1
inactive: [19] 92 % of control | [20] 92 % of control | [21] 93 % of control

CCOC(=O)C(Cc1ccccc1Cl)(NC(C)=O)C(=O)OCC
inactive: [7] 93 % of control | [8] 100 % of control | [9] 104 % of control

CCOc1cc(-c2nc(-c3ccc(N=Cc4ccc(N(CCCOS(C)(=O)=O)CCCOS(C)(=O)=O)cc4)cc3)cs2)ccc1OCc1ccccc1
inactive: [7] 92 % of control | [8] 94 % of control | [9] 92 % of control
